From US10227349B2, “Pyrazolo[1,5-a]pyrimidine compound” (Eisai R&D Management Co., Ltd., priority 2016, dated 2019) come the findings set out here.

Each structure is given as a SMILES string.

The target of test [1] is T1, PAR2 (Homo sapiens, UniProt P55085).
T1 construct: Human embryonic kidney cell line HEK293 cells cultured using DMEM culture medium; endogenous in cells; host or cells: HEK293
T1 sequence (P55085 26-397): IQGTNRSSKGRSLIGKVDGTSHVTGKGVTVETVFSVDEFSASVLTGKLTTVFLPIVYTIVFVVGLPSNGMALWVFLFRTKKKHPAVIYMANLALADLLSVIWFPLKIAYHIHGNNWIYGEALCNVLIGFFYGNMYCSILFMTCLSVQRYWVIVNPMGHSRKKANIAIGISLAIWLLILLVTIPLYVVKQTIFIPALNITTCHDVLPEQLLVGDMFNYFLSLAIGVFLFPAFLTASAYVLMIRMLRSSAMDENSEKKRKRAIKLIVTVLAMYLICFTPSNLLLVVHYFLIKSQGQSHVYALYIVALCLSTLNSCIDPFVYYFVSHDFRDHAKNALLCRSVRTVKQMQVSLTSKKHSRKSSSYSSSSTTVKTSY
Put plainly: Intracellular calcium concentration measurement (trypsin-induced calcium elevation, FDSS6000). It is filed as cell-based. To be noted: HEK293 cells, trypsin 5 U/mL as agonist, test compound added 30 min before measurement; read-out: Inhibitory activity on intracellular calcium elevation (IC50 (nM)). An excerpt: In the present specification, examples of the measurement method for the PAR2 inhibitory activity include measurement method for a concentration elevation of intracellular calcium; measurement method for a production increase of intracellular inositol trisphosphate; measurement method for an increase in intracellular protein phosphorylation by protein kinase C and MAP kinase; and measurement method for a production amount or a release amount of inflammation-related physiologically active substances such as cytokine, chemokine, prostaglandin and nitric monoxide. Examples of the measurement method for an elevation of intracellular calcium concentration include a method wherein a calcium-binding fluorescent probe is allowed to be incorporated in advance into a cultured cell line or an animal-derived isolated cell having PAR2, or a cell in which PAR2 is artificially expressed, a protease having the PAR2 activity function such as trypsin or a PAR2 agonist (synthetic peptides such as SLIGKV-NH2 (SEQ ID NO: 1) and SLIGRL-NH2 (SEQ ID NO: 2) is added to activate PAR2 whereby fluctuating intracellular calcium concentrations are detected as changes in the fluorescent signal. Alternatively, it is also possible to measure an intracellular calcium concentration by determining the quantity of a fluorescence intensity produced in proportion to the calcium concentration using a calcium-binding luminescent protein overexpressing cell line such as Aequorin. Specifically, examples include the methods described in Test Examples of the present specification.
Human embryonic kidney cell line HEK293 cells cultured using DMEM culture medium (Invitrogen) with 3% fetal bovine serum (3% FBS)-added was prepared to have a concentration of 2×10^5 cells/mL, and plated in a type I collagen-coated 384-well black plate (clear bottom) (Greiner) so as to be 25 μL/well and cultured in a CO2 incubator overnight. FLIPR Calcium Assay Kit (Molecular Devices) prepared with Hanks-20 mM Hepes buffer (pH 7.4) was added to the cells so as to be 25 μL/well and cultured in the CO2 incubator for 1 hour. Trypsin (SIGMA-ALDRICH, catalog number: T8816, Enzyme Commission Number 3.4.21.4) prepared so as to be 5 U/mL as final concentration (BAEE unit) with Hanks-20 mM Hepes buffer (pH 7.4) was added to a 384-well deep well polypropylene plate (Greiner) to be an agonist reagent plate. Thirty minutes before the measurement using FDSS6000 (Hamamatsu Photonics K.K.), a test compound prepared with Hanks-20 mM Hepes buffer (pH 7.4) was added to the cell so as to be 8 μL/well. The cell plate to which the test compound was added and the reagent plate were set on FDSS6000, 22 μL/well of the agonist solution was added from the reagent plate, and the change in intracellular calcium concentration was measured with a CCD camera. The measurement was carried out at 37° C. for 120 seconds and the addition of reagent from the reagent plate to the cell plate was carried out using a built-in 384-well automatic dispenser of FDSS6000.
Note that Reference Example 1 in Table 3 is the compound represented by formula (XIX) synthesized in the above Reference Example 1 (hereinafter, also referred to as Compound (XIX)). Additionally, the “Comparative Compound” in Table 3 is the compound described in Patent Literature 4 represented by the following formula (XX) (I-343; hereinafter, also referred to as Compound (XX)).

Test [2] concerns the target T2, PAR2 (Mus musculus, UniProt P55086).
T2 construct: orally administered to C57BL/6J male mice (Charles River), 6-10 weeks of age; tissue Charles River; host or cells: Living C57BL/6J male mice (in vivo; saliva secretion)
T2 sequence (P55086 26-399): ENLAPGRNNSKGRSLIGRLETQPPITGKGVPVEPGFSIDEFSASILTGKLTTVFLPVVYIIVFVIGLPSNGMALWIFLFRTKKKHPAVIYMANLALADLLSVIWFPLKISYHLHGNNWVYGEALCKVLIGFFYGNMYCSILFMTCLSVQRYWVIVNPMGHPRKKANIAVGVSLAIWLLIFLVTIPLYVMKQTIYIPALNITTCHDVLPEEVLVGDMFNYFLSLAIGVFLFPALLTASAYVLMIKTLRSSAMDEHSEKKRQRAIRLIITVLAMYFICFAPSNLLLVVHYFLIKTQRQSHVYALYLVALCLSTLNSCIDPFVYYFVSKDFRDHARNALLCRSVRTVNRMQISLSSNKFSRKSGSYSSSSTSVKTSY
Description: Measurement of PAR2 agonist (SLIGRL-NH2)-induced salivation in mouse. It is filed as in vivo. To be noted: C57BL/6J male mice, 0.3 mg/mL solution 10 mL/kg orally, 60 min before SLIGRL-NH2 i.p., saliva collected 10 min. The method, then: The test compound was added to a 0.5% carboxymethyl cellulose solution to which 2% DMSO was added, so as to have the final concentration of 0.3 mg/mL, thereby preparing an administration solution containing the test compound. The administration solution containing the test compound (10 mL/kg) was orally administered to C57BL/6J male mice (Charles River), 6-10 weeks of age, using an oral sonde and a syringe. Forty-five minutes after the administration of the test compound, 10 mL/kg of a 20% (w/v) urethane solution was intraperitoneal administered to the mice which were then anesthetized. Sixty minutes after the administration of the test compound, 10 mL/kg of a 0.1 mg/mL SLIGRL-NH2 (SEQ ID NO: 2) solution was intraperitoneally administered as the PAR2 agonist and a cotton ball was immediately placed in the oral cavity of the mouse to collect the saliva. Ten minutes after the administration of the PAR2 agonist, the cotton ball was removed and weighed to measure the amount of saliva secreted.
Note that Reference Example 1 in Table 4 is Compound (XIX). Additionally, Comparative Compound in Table 4 is Compound (XX).

As to `CC(C)CN(c1cc(-c2cc(F)c(F)c(F)c2)nc2cc(C(=O)N(C)[C@H](C)CC(=O)O)nn12)[C@H](C)C(C)C` [Example 9, (R)-3-(7-(isobutyl((R)-3-methylbutan-2-yl)amino)-N-methyl-5-(3,4,5-trifluorophenyl)pyrazolo[1,5-a]pyrimidine-2-carboxamide)butanoic acid], at PAR2 [1], the IC50 was found to be 4.9 nM. The “Inhibitory activity on the PAR2-dependent saliva secretion (%)” value (“Inhibitory activity … (%)” for short) on PAR2 [2] was determined as 96.0%.

With `CN(c1c(F)cccc1Cl)c1cc(-c2cc(F)c(F)c(F)c2)nc2cc(C(=O)N3CCC(CC(=O)O)CC3)nn12` [Example 17, 2-(1-(7-((2-chloro-6-fluorophenyl)(methyl)amino)-5-(3,4,5-trifluorophenyl)pyrazolo[1,5-a]pyrimidine-2-carbonyl)piperidin-4-yl)acetic acid], at PAR2 [1], the 50% inhibitory concentration (IC50) was found to be 3.27 nM. Also, the “Inhibitory activity … (%)” value on PAR2 [2] turned out to be 94.9%.

Take `Cc1n[nH]c(C(=O)N2CCN(C(=O)c3cn4nc(-c5ccc(F)cc5)cc(C(C)(C)C)c4n3)C(C)(C)C2)n1` [Comparative Compound, reference compound]: the IC50 at PAR2 [1] worked out at 24.2 nM. Also, on PAR2 [2], the “Inhibitory activity … (%)” value is 98.0%.

`CO[C@H]1CN(C(=O)c2cc3nc(-c4ccc(F)c(Cl)c4)cc(N(C)c4c(C)cccc4C)n3n2)CC[C@H]1CC(=O)O` (relative stereo) [Example 4, 2-((3R*,4S*)-1-(5-(3-chloro-4-fluorophenyl)-7-((2,6-dimethylphenyl)(methyl)amino)pyrazolo[1,5-a]pyrimidine-2-carbonyl)-3-methoxypiperidin-4-yl)acetic acid]: at PAR2 [1], the IC50 was 7.32 nM. The “Inhibitory activity … (%)” value on PAR2 [2] amounted to 87.1%.

Take `CO[C@H]1CN(C(=O)c2cc3nc(-c4ccc(Cl)c(F)c4)cc(N(C)c4c(C)cccc4Cl)n3n2)CC[C@H]1CC(=O)O` (relative stereo) [Example 11, 2-((3R*,4S*)-1-(5-(4-chloro-3-fluorophenyl)-7-((2-chloro-6-methylphenyl)(methyl)amino)pyrazolo[1,5-a]pyrimidine-2-carbonyl)-3-methoxypiperidin-4-yl)acetic acid]: on PAR2 [1], the concentration for half-maximal inhibition (IC50) was found to be 6.88 nM. The “Inhibitory activity … (%)” value at PAR2 [2] is on record as 97.8%.

`Cc1cccc(C)c1N(C)c1cc(C2CCC(C)(C)CC2)nc2cc(C(=O)N3CC[C@@H](CC(=O)O)[C@@H](F)C3)nn12` (relative stereo) [Example 3, 2-((3R*,4S*)-1-(5-(4,4-dimethylcyclohexyl)-7-((2,6-dimethylphenyl)(methyl)amino)pyrazolo[1,5-a]pyrimidine-2-carbonyl)-3-fluoropiperidin-4-yl) acetic acid]: at PAR2 [1], the half-maximal inhibitory concentration (IC50) is 8.73 nM. The “Inhibitory activity … (%)” value at PAR2 [2] stood at 86.7%.

Turning to `CCCN(c1cc(-c2cc(F)c(Cl)c(F)c2)nc2cc(C(=O)N3CC[C@@H](CC(=O)O)[C@@H](C)C3)nn12)C(C)C` (relative stereo) [Example 18, 2-((3R*,4S*)-1-(5-(4-chloro-3,5-difluorophenyl)-7-(isopropyl(propyl)amino)pyrazolo[1,5-a]pyrimidine-2-carbonyl)-3-methylpiperidin-4-yl)acetic acid], the IC50 at PAR2 [1] was determined as 7.38 nM. Moreover, the “Inhibitory activity … (%)” value at PAR2 [2] turned out to be 95.1%.

Take `CN(c1ccccc1Cl)c1cc(-c2cc(F)c(Cl)c(F)c2)nc2cc(C(=O)N3CC[C@@H](CC(=O)O)[C@@H](F)C3)nn12` (relative stereo) [Example 14, 2-((3R*,4S*)-1-(5-(4-chloro-3,5-difluorophenyl)-7-((2-chlorophenyl)(methyl)amino)pyrazolo[1,5-a]pyrimidine-2-carbonyl)-3-fluoropiperidin-4-yl)acetic acid]: the IC50 at PAR2 [1] is 5.08 nM. Besides, at PAR2 [2], the “Inhibitory activity … (%)” value was determined as 92.5%.

With `CO[C@H]1CN(C(=O)c2cc3nc(-c4cc(F)c(Cl)c(F)c4)cc(N(C)c4c(C)cccc4Cl)n3n2)CC[C@H]1CC(=O)O` (relative stereo) [Example 12, 2-((3R*,4S*)-1-(5-(4-chloro-3,5-difluorophenyl)-7-((2-chloro-6-methylphenyl)(methyl)amino)pyrazolo[1,5-a]pyrimidine-2-carbonyl)-3-methoxypiperidin-4-yl)acetic acid], the half-inhibitory concentration (IC50) at PAR2 [1] is 4.77 nM. Moreover, the “Inhibitory activity … (%)” value on PAR2 [2] is listed as 98.8%.
